Source: PubChem BioAssay (NCI)
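How tested: cells in 96-well plates exposed to compound for 48 hours at five concentrations. TGI marks complete inhibition of growth.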

Key:
Assay in all cases: inhibition of tumour cell growth, NCI panel, 48 h
HT29 colon = test system: HT29 colon
UACC-62 melanoma = test system: UACC-62 melanoma
HOP-62 NSCLC = test system: HOP-62 NSCLC
HOP-92 NSCLC = test system: HOP-92 NSCLC
K-562 leukemia = test system: K-562 leukemia
KM20L2 colon = test system: KM20L2 colon
UO-31 renal = test system: UO-31 renal
HCT-116 colon = test system: HCT-116 colon
TK-10 renal = test system: TK-10 renal
DMS 114 small cell lung = test system: DMS 114 small cell lung
SR leukemia = test system: SR leukemia
M14 melanoma = test system: M14 melanoma
SN12C renal = test system: SN12C renal
SNB-75 CNS = test system: SNB-75 CNS
SNB-78 CNS = test system: SNB-78 CNS
NCI-H522 lung = test system: NCI-H522 lung
UACC-257 melanoma = test system: UACC-257 melanoma
DMS 273 small cell lung = test system: DMS 273 small cell lung
LXFL 529 NSCLC = test system: LXFL 529 NSCLC
COLO 205 colon = test system: COLO 205 colon
SK-MEL-2 melanoma = test system: SK-MEL-2 melanoma
IGROV1 ovarian = test system: IGROV1 ovarian
SF-539 CNS = test system: SF-539 CNS
OVCAR-5 ovarian = test system: OVCAR-5 ovarian
OVCAR-3 ovarian = test system: OVCAR-3 ovarian
RXF 393 renal = test system: RXF 393 renal
ACHN renal = test system: ACHN renal
CAKI-1 renal = test system: CAKI-1 renal
SW-620 colon = test system: SW-620 colon
CCRF-CEM leukemia = test system: CCRF-CEM leukemia
786-0 renal = test system: 786-0 renal
OVCAR-4 ovarian = test system: OVCAR-4 ovarian
HCT-15 colon = test system: HCT-15 colon
RPMI-8226 leukemia = test system: RPMI-8226 leukemia
HOP-18 NSCLC = test system: HOP-18 NSCLC
M19-MEL melanoma = test system: M19-MEL melanoma
RXF-631 renal = test system: RXF-631 renal
SK-MEL-28 melanoma = test system: SK-MEL-28 melanoma
MALME-3M melanoma = test system: MALME-3M melanoma
DLD-1 colon = test system: DLD-1 colon
NCI-H460 lung = test system: NCI-H460 lung
MOLT-4 leukemia = test system: MOLT-4 leukemia
EKVX NSCLC = test system: EKVX NSCLC
HL-60(TB) leukemia = test system: HL-60(TB) leukemia
HCC-2998 colon = test system: HCC-2998 colon
KM12 colon = test system: KM12 colon
U251 CNS = test system: U251 CNS
SNB-19 CNS = test system: SNB-19 CNS
OVCAR-8 ovarian = test system: OVCAR-8 ovarian
NCI-H23 lung = test system: NCI-H23 lung
SF-295 CNS = test system: SF-295 CNS
A549 NSCLC = test system: A549 NSCLC
SK-OV-3 ovarian = test system: SK-OV-3 ovarian
SK-MEL-5 melanoma = test system: SK-MEL-5 melanoma
SF-268 CNS = test system: SF-268 CNS
LOX IMVI melanoma = test system: LOX IMVI melanoma
NCI-H226 lung = test system: NCI-H226 lung

Measured: TGI

O=C1[C@@H]2C(c3cccc([N+](=O)[O-])c3)=NO[C@@H]2C(=O)N1c1ccc(Cc2ccc(N3C(=O)[C@H]4C(c5cccc([N+](=O)[O-])c5)=NO[C@H]4C3=O)cc2)cc1
> 100 µM: HT29 colon | UACC-62 melanoma | HOP-62 NSCLC | HOP-92 NSCLC | K-562 leukemia | KM20L2 colon | UO-31 renal | HCT-116 colon | TK-10 renal | DMS 114 small cell lung | SR leukemia | M14 melanoma | SN12C renal | SNB-75 CNS | SNB-78 CNS | NCI-H522 lung | UACC-257 melanoma | DMS 273 small cell lung | LXFL 529 NSCLC | COLO 205 colon | SK-MEL-2 melanoma | IGROV1 ovarian | SF-539 CNS | OVCAR-5 ovarian | OVCAR-3 ovarian | RXF 393 renal | ACHN renal | CAKI-1 renal | SW-620 colon | CCRF-CEM leukemia | 786-0 renal | OVCAR-4 ovarian | HCT-15 colon | RPMI-8226 leukemia | HOP-18 NSCLC | M19-MEL melanoma | RXF-631 renal | SK-MEL-28 melanoma | MALME-3M melanoma | DLD-1 colon | NCI-H460 lung | MOLT-4 leukemia

COC(=O)C1Cc2c([nH]c3ccccc23)C(C2CCCCC2)N1 (stereo not given)
> 100 µM: EKVX NSCLC | HT29 colon | UACC-62 melanoma | HL-60(TB) leukemia | HCC-2998 colon | HOP-92 NSCLC | KM12 colon | K-562 leukemia | U251 CNS | KM20L2 colon | SNB-19 CNS | UO-31 renal | HCT-116 colon | OVCAR-8 ovarian | TK-10 renal | DMS 114 small cell lung | SR leukemia | M14 melanoma | SN12C renal | SNB-75 CNS | NCI-H522 lung | UACC-257 melanoma | DMS 273 small cell lung | NCI-H23 lung | LXFL 529 NSCLC | COLO 205 colon | SK-MEL-2 melanoma | IGROV1 ovarian | SF-539 CNS | OVCAR-5 ovarian | OVCAR-3 ovarian | ACHN renal | CAKI-1 renal | SW-620 colon | CCRF-CEM leukemia | SF-295 CNS | A549 NSCLC | SK-OV-3 ovarian | SK-MEL-5 melanoma | SF-268 CNS | 786-0 renal | OVCAR-4 ovarian | LOX IMVI melanoma | HCT-15 colon | HOP-18 NSCLC | M19-MEL melanoma | NCI-H226 lung | RXF-631 renal | SK-MEL-28 melanoma | MALME-3M melanoma | DLD-1 colon | NCI-H460 lung | MOLT-4 leukemia
